Data published in patent US9708314B2, “Heterocyclic amide compound” (NISSAN CHEMICAL INDUSTRIES, LTD., priority 2013, dated 2017).

What was measured:
Format in all cases: in vivo
[1] = tested on: directly sowed Oryza sativa; experiment: Test Example 3: effect on crop by application to foliage (Wagner pot, water depth 0.1-0.5 cm); conditions: Nineteenth Table
Method in brief: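 Grading uses six bands of herbicidal ratio, from 0 (≤5%, almost no effect) to 5 (≥90%, almost completely withered). Treatment was a stem-and-leaf spray of diluted emulsion at a fixed g/ha on 14-day-old plants; evaluation after three weeks.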

[2] = tested on: Abutilon theophrasti; experiment: Test Example 4: herbicidal effect by application to foliage (diluvial soil, plastic box); conditions: application to foliage, application herbicide amount 320 g/ha
Method in brief: (§1)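 Read-out is a 0–5 visual grade of herbicidal ratio (5: ≥90%, almost withered; 0: ≤5%) taken three weeks after treatment. Compound was applied as a diluted emulsion to stem and leaf parts of 14-day greenhouse-grown plants (25° C. to 30° C.) at rates expressed as g/ha.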

[3] = tested on: Alopecurus myosuroides; experiment: as above; conditions: application to foliage, application herbicide amount 320 g/ha
Method in brief: as §1

[4] = tested on: Amaranthus retroflexus; experiment: as above; conditions: application to foliage, application herbicide amount 320 g/ha
Method in brief: as §1

[5] = tested on: Apera spica-venti.; experiment: as above; conditions: application to foliage, application herbicide amount 320 g/ha
Method in brief: as §1

[6] = tested on: Avena fatua; experiment: as above; conditions: application to foliage, application herbicide amount 320 g/ha
Method in brief: as §1

[7] = tested on: Digitaria ciliaris; experiment: as above; conditions: application to foliage, application herbicide amount 320 g/ha
Method in brief: as §1

[8] = tested on: Galium spurium; experiment: as above; conditions: application to foliage, application herbicide amount 320 g/ha
Method in brief: as §1

[9] = tested on: Lolium multiflorum Lam.; experiment: as above; conditions: application to foliage, application herbicide amount 320 g/ha
Method in brief: as §1

[10] = tested on: Setaria viridis; experiment: as above; conditions: application to foliage, application herbicide amount 320 g/ha
Method in brief: as §1

[11] = tested on: Stellaria media; experiment: as above; conditions: application to foliage, application herbicide amount 320 g/ha
Method in brief: as §1

[12] = tested on: Veronica persica; experiment: as above; conditions: application to foliage, application herbicide amount 320 g/ha
Method in brief: as §1

[13] = application herbicide amount 320 g/ha
[14] = application herbicide amount 400 g/ha

SMILES | b (directly sowed Oryza sativa) effect on crop grade [1, 13] | M (Abutilon theophrasti) herbicidal effect [2] | J (Alopecurus myosuroides) herbicidal effect [3] | N (Amaranthus retroflexus) herbicidal effect [4] | L (Apera spica-venti.) herbicidal effect [5] | I (Avena fatua) herbicidal effect [6] | F (Digitaria ciliaris) herbicidal effect [7] | Q (Galium spurium) herbicidal effect [8] | K (Lolium multiflorum Lam.) herbicidal effect [9] | G (Setaria viridis) herbicidal effect [10] | P (Stellaria media) herbicidal effect [11] | R (Veronica persica) herbicidal effect [12] | b (directly sowed Oryza sativa) effect on crop grade [1, 14]
Cc1nnc(NC(=O)c2ccc(C(F)(F)F)n3cnnc23)o1 [1-001] | 0 (Herbicidal ratio of 5% or less (almost no effect)) | 3 (Herbicidal ratio of 40% or more and less than 70%) | 1 (Herbicidal ratio of 5% or more and less than 20%) | 3 (Herbicidal ratio of 40% or more and less than 70%) | 1 (Herbicidal ratio of 5% or more and less than 20%) | 1 (Herbicidal ratio of 5% or more and less than 20%) | 4 (Herbicidal ratio of 70% or more and less than 90%) | 4 (Herbicidal ratio of 70% or more and less than 90%) | 1 (Herbicidal ratio of 5% or more and less than 20%) | 3 (Herbicidal ratio of 40% or more and less than 70%) | 4 (Herbicidal ratio of 70% or more and less than 90%) | 4 (Herbicidal ratio of 70% or more and less than 90%) | 
CCc1nnc(NC(=O)c2ccc(C(F)(F)F)n3c(C(C)C)nnc23)o1 [1-005] |  | 4 (Herbicidal ratio of 70% or more and less than 90%) | 0 (Herbicidal ratio of 5% or less (almost no effect)) | 3 (Herbicidal ratio of 40% or more and less than 70%) | 0 (Herbicidal ratio of 5% or less (almost no effect)) | 1 (Herbicidal ratio of 5% or more and less than 20%) | 3 (Herbicidal ratio of 40% or more and less than 70%) | 0 (Herbicidal ratio of 5% or less (almost no effect)) | 0 (Herbicidal ratio of 5% or less (almost no effect)) | 3 (Herbicidal ratio of 40% or more and less than 70%) | 1 (Herbicidal ratio of 5% or more and less than 20%) | 3 (Herbicidal ratio of 40% or more and less than 70%) | 0 (Herbicidal ratio of 5% or less (almost no effect))
Cc1nnc(NC(=O)c2ccc(C(F)(F)F)n3c(C4CC4)nnc23)o1 [1-010] |  | 5 (Herbicidal ratio of 90% or more (almost completely withered)) | 2 (Herbicidal ratio of 20% or more and less than 40%) | 5 (Herbicidal ratio of 90% or more (almost completely withered)) | 2 (Herbicidal ratio of 20% or more and less than 40%) | 3 (Herbicidal ratio of 40% or more and less than 70%) | 3 (Herbicidal ratio of 40% or more and less than 70%) | 1 (Herbicidal ratio of 5% or more and less than 20%) | 1 (Herbicidal ratio of 5% or more and less than 20%) | 3 (Herbicidal ratio of 40% or more and less than 70%) | 5 (Herbicidal ratio of 90% or more (almost completely withered)) | 5 (Herbicidal ratio of 90% or more (almost completely withered)) | 0 (Herbicidal ratio of 5% or less (almost no effect))
CCC(CC)c1nnc2c(C(=O)Nc3nnc(C)o3)ccc(C(F)(F)F)n12 [1-011] |  | 5 (Herbicidal ratio of 90% or more (almost completely withered)) | 1 (Herbicidal ratio of 5% or more and less than 20%) | 5 (Herbicidal ratio of 90% or more (almost completely withered)) | 2 (Herbicidal ratio of 20% or more and less than 40%) | 1 (Herbicidal ratio of 5% or more and less than 20%) | 5 (Herbicidal ratio of 90% or more (almost completely withered)) | 2 (Herbicidal ratio of 20% or more and less than 40%) | 1 (Herbicidal ratio of 5% or more and less than 20%) | 4 (Herbicidal ratio of 70% or more and less than 90%) | 5 (Herbicidal ratio of 90% or more (almost completely withered)) | 5 (Herbicidal ratio of 90% or more (almost completely withered)) | 0 (Herbicidal ratio of 5% or less (almost no effect))
Cc1nnc(NC(=O)c2ccc(C(F)(F)F)n3c(-c4ccccc4)nnc23)o1 [1-012] |  | 3 (Herbicidal ratio of 40% or more and less than 70%) | 0 (Herbicidal ratio of 5% or less (almost no effect)) | 3 (Herbicidal ratio of 40% or more and less than 70%) | 1 (Herbicidal ratio of 5% or more and less than 20%) | 0 (Herbicidal ratio of 5% or less (almost no effect)) | 3 (Herbicidal ratio of 40% or more and less than 70%) | 2 (Herbicidal ratio of 20% or more and less than 40%) | 1 (Herbicidal ratio of 5% or more and less than 20%) | 4 (Herbicidal ratio of 70% or more and less than 90%) | 4 (Herbicidal ratio of 70% or more and less than 90%) | 4 (Herbicidal ratio of 70% or more and less than 90%) | 0 (Herbicidal ratio of 5% or less (almost no effect))
Cc1nnc(NC(=O)c2ccc(C(F)(F)F)n3c(Br)nnc23)o1 [1-014] | 1 (Herbicidal ratio of 5% or more and less than 20%) | 4 (Herbicidal ratio of 70% or more and less than 90%) | 1 (Herbicidal ratio of 5% or more and less than 20%) | 5 (Herbicidal ratio of 90% or more (almost completely withered)) | 0 (Herbicidal ratio of 5% or less (almost no effect)) | 1 (Herbicidal ratio of 5% or more and less than 20%) | 3 (Herbicidal ratio of 40% or more and less than 70%) | 3 (Herbicidal ratio of 40% or more and less than 70%) | 1 (Herbicidal ratio of 5% or more and less than 20%) | 3 (Herbicidal ratio of 40% or more and less than 70%) | 5 (Herbicidal ratio of 90% or more (almost completely withered)) | 4 (Herbicidal ratio of 70% or more and less than 90%) | 
COCc1nnc2c(C(=O)Nc3nnc(C)o3)ccc(C(F)(F)F)n12 [1-015] | 1 (Herbicidal ratio of 5% or more and less than 20%) | 5 (Herbicidal ratio of 90% or more (almost completely withered)) | 1 (Herbicidal ratio of 5% or more and less than 20%) | 5 (Herbicidal ratio of 90% or more (almost completely withered)) | 3 (Herbicidal ratio of 40% or more and less than 70%) | 3 (Herbicidal ratio of 40% or more and less than 70%) | 4 (Herbicidal ratio of 70% or more and less than 90%) | 3 (Herbicidal ratio of 40% or more and less than 70%) | 1 (Herbicidal ratio of 5% or more and less than 20%) | 3 (Herbicidal ratio of 40% or more and less than 70%) | 5 (Herbicidal ratio of 90% or more (almost completely withered)) | 5 (Herbicidal ratio of 90% or more (almost completely withered)) | 
COc1ccc(-c2nnc3c(C(=O)Nc4nnc(C)o4)ccc(C(F)(F)F)n23)cc1 [1-016] | 1 (Herbicidal ratio of 5% or more and less than 20%) | 5 (Herbicidal ratio of 90% or more (almost completely withered)) | 1 (Herbicidal ratio of 5% or more and less than 20%) | 5 (Herbicidal ratio of 90% or more (almost completely withered)) | 0 (Herbicidal ratio of 5% or less (almost no effect)) | 1 (Herbicidal ratio of 5% or more and less than 20%) | 4 (Herbicidal ratio of 70% or more and less than 90%) | 2 (Herbicidal ratio of 20% or more and less than 40%) | 1 (Herbicidal ratio of 5% or more and less than 20%) | 2 (Herbicidal ratio of 20% or more and less than 40%) | 5 (Herbicidal ratio of 90% or more (almost completely withered)) | 4 (Herbicidal ratio of 70% or more and less than 90%) | 
